These are literature values, as cited in patent US10905730B2, “Phytocannabinoid topical compositions for releiving pain” (priority 2017, dated 2021).

Each structure is given as a SMILES string. Like-named read-outs stand apart in the source and are kept apart here.

`C=C(C)[C@@H]1CCC(C)=C[C@H]1c1c(O)cc(CCCCC)cc1O` [CBD, cannabidiol]: the “solubility in organic solvents” value is “soluble in organic solvents such as pentane” and the solubility in water result is given as “insoluble in water”. Further, the chemical stability entry (acidic conditions) is “cyclizes to THC”. The chemical stability result (strongly basic media and presence of air) is reported as “oxidized to a quinone”.
